Our source for the IC50 values is PubChem BioAssay AID504322 (Emory University Molecular Libraries Screening Center, 2011).

The assay deals with CHOP reporter cell assay, percent of control. In words: CHOP reporter inhibitor potency, dose response, cell-based (AID 504322).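 Also: CHO cells carrying a CHOP reporter stimulated with tunicamycin to induce ER stress; potency is for inhibition of the stress-induced reporter signal.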

Active and inactive are the calls of the source. No rule for the calls is given here.

What is called IC50 is the midpoint of a concentration-inhibition curve. Turning to `CC(C)(C)C1C/C(=C/c2ccccn2)C(=O)/C(=C/c2ccccn2)C1` (stereo not drawn), the IC50 was 0.3 µM. Turning to `O=c1[nH]c2ccccc2n1C1CCN(CCCC(c2ccc(F)cc2)c2ccc(F)cc2)CC1`, the IC50 was 6.34 µM (inactive). As for `CCCC(=O)NC(NC(=S)Nc1ccc(N=Nc2ccccc2)cc1)C(Cl)(Cl)Cl` (stereo not drawn), the 50% inhibitory concentration (IC50) is 7.31 µM. The value for `CCN(CC)CCOC(=O)c1ccc(N/C=C(/C#N)c2nc(-c3cccc(OC)c3)cs2)cc1` was 9.3 µM (inactive). Turning to `CCc1ccc(/C=c2\s/c(=C\C(=O)C(C)(C)C)[nH]c2=O)cc1`, the IC50 is 9.29 µM (inactive). As for `O=C(COCC(=O)Nc1cccc(C(F)(F)F)c1)Nc1cccc(C(F)(F)F)c1`, the figure is 5.44 µM (inactive); as for `Cc1c(CN2CCC(CO)(CCOc3ccccc3)CC2)[nH]c2c(Cl)cccc12`, 9.13 µM (inactive). The value for `O=C(Nc1ccc([N+](=O)[O-])cc1)Nc1ccc(OC(F)F)c(Cl)c1` was 6.4 µM (inactive); that for `C=CCn1c(SCC(=O)Nc2ccc(-c3nc4ccc(C)cc4s3)cc2)nnc1-c1ccccc1` was 9.89 µM (inactive). The value for `O=C(O)c1cccc(COc2ccc(CO)cc2Cl)c1` was less than 0.16 µM; that for `CCOc1cc(S(=O)(=O)Nc2cc(C)cc(C)c2)ccc1Cl` was 9.51 µM (inactive). As to `O=C1C(Cl)=C(N2CCCCC2)C(=O)C(Cl)=C1c1cnc(N2CCCCC2)s1`, the IC50 was 9.7 µM (inactive).

In the case of `CCN1/C(=C/C=C/C=C/c2sc3ccccc3[n+]2CC)Sc2ccccc21`, the IC50 is 0.87 µM (inactive). `CCCCCCN1C=CC(=C2C(=O)c3ccccc3C2=O)C=C1`: the IC50 was 6.36 µM (inactive). The value for `Nc1c(N(C(=O)Nc2ccc(Cl)c(Cl)c2)C2CCCC2)c(=O)[nH]c(=O)n1Cc1ccccc1` was > 10 µM (inactive); that for `O=[N+]([O-])c1c(NCCCO)cc(Sc2nc3ccccc3s2)c2nonc12` was > 10 µM (inactive). In the case of `Cc1ccc(/C=C2\SC(=S)N(CCCC(=O)Nc3ccc(O)cc3)C2=O)cc1`, the IC50 was 0.17 µM. As for `CCOC(=O)c1c(C(C)(C)C)oc2ccc(O)cc12`, the figure is 9.38 µM (inactive); as for `O=C(Nc1ccc(C(F)(F)F)cc1)c1cc(-c2cccnc2)nc2ccc(Br)cc12`, 3.59 µM; as for `Nc1c(C(=O)Nc2ccc(S(=O)(=O)N3CCCC3)cc2)sc2nc3ccc(OC(F)(F)F)cc3cc12`, 6.79 µM (inactive). On to `CC1(c2ccccc2)CC(C)(C)N2C(=O)C3(C(C#N)=C(N)Oc4cc(O)ccc43)c3cccc1c32` (stereo not drawn), for which the IC50 was 5.48 µM (inactive). As for `O=C1NC(=S)S/C1=C\C=C\c1ccc([N+](=O)[O-])o1`, the figure is 9.29 µM (inactive). As for `Cc1cc(Nc2ccc(Cl)cc2)nc(NCc2ccccc2)n1`, the figure is > 10 µM (inactive). As for `Cn1c(=O)[nH]c(=O)c2c1nc([N+](=O)[O-])n2Cc1ccccc1`, the figure is 4.64 µM; as for `Cc1cc2c(cc1C)CSC(c1ccccc1O)SC2`, > 10 µM (inactive). As for `C/C(=N\NC(=O)COc1ccc(C(C)(C)C)cc1)c1ccc(N2CCOCC2)cc1`, the IC50 is 9.41 µM (inactive).

Turning to `Oc1ccc(/C=N/Nc2nc(-c3ccc(Cl)cc3)cc(C(F)(F)F)n2)cc1`, the IC50 is 5.8 µM (inactive). The value for `N=c1n(Cc2ccccc2)c2ccccc2n1CC(O)COc1ccc(Cl)cc1Cl` (stereo not drawn) was 6.92 µM (inactive); that for `CC(C)=CCc1c(O)cc2oc3c(CC=C(C)C)c(O)c(O)c(CC=C(C)C)c3c(=O)c2c1O` was 9.67 µM (inactive). As for `CCc1ccc(-c2nc(CSCC(=O)NCc3ccco3)c(C)o2)cc1`, the figure is less than 0.16 µM; as for `Cc1ccc(-c2nc(-c3ccccn3)no2)cc1`, 4.47 µM. For the compound `CCCCCCCCCS(=O)(=O)N/N=C/c1cccc([N+](=O)[O-])c1`, the IC50 was 3.9 µM (inactive). As for `O=C1NC[C@@H](Cc2cccc3ccccc23)N(CCc2cc(C(F)(F)F)cc(C(F)(F)F)c2)C1=O`, the figure is 9.02 µM (inactive); as for `Cc1ccc(Nc2nc(N)c([N+](=O)[O-])c(N3CCC(C)CC3)n2)cc1C`, 5.69 µM (inactive). Regarding `C#CC(=O)N(c1cc(OC)ccc1OC)C(C(=O)NC1CCCC1)c1cccs1` (stereo not drawn), the IC50 is > 10 µM (inactive).

On to `O=C(Nc1ccccc1Cl)/C(Cl)=C(\Cl)S(=O)c1ccccc1` (stereo not drawn), for which the IC50 was 2.4 µM.

On to `CC(C)c1ccccc1NC(=O)Cn1c(/C=C/c2ccccc2)nc2ccccc21`, for which the IC50 is 5.88 µM (inactive). As for `Cc1cccc(NC(=O)/C(C#N)=C/c2cn(CC(=O)NCc3ccco3)c3ccccc23)c1C`, the figure is > 10 µM (inactive); as for `COC(=O)C(O)(c1ccc(NC(=S)NC(=O)c2ccc(Cl)cc2Cl)c(C)c1)C(F)(F)F` (stereo not drawn), 9.05 µM (inactive); as for `CC(C)(C)c1ccc(CN2N=Nc3ccccc3S2(=O)=O)cc1`, 9.3 µM (inactive). As for `O=C1c2ccccc2-c2onc3ccc(Oc4ccccc4)c1c23`, the figure is 9.64 µM (inactive); as for `CCN1/C(=C/c2ccc3cc(C)ccc3[n+]2C)Sc2ccc3sccc3c21`, 5.29 µM (inactive); as for `COc1cc(-c2nc3c(c(C)nn3-c3ccccc3)c3cc(OC)c(OC)cc23)ccc1O`, 9.85 µM (inactive).

For `Cc1ccc(-n2c(Cl)c(Cl)nc(Cl)c2=O)cc1`, the half-maximal inhibitory concentration (IC50) is 1.04 µM. As for `NC(=O)CC(NC(=O)Cc1cccc2ccccc12)c1ccc(NCc2ccc(F)cc2)c([N+](=O)[O-])c1` (stereo not drawn), the figure is > 10 µM (inactive); as for `CC1=NN(c2nc(-c3ccc(C)cc3)cs2)C(=O)C1N=Nc1ccccc1O` (stereo not drawn), 6.66 µM (inactive); as for `COc1cccc(-n2nnnc2S(C)(=O)=O)c1`, 5.51 µM (inactive). The value for `O=c1c(Br)c(Br)cnn1-c1ccccc1` was 4.97 µM (inactive); that for `NC(=S)n1[nH]c(-c2ccc([N+](=O)[O-])cc2)c(N=Nc2cccc([N+](=O)[O-])c2)c1=O` was 4.4 µM (inactive); that for `CCN1C/C(=C/c2ccc(OC)c(O)c2)C(=O)/C(=C/c2ccc(OC)c(O)c2)C1` was 5.33 µM (inactive). With `CCN(CC)CCn1c(SCC(=O)Nc2ccc(F)cc2)nc2c(sc3ccccc32)c1=O`, the IC50 is > 10 µM (inactive). Turning to `COc1ccc([C@H]2Oc3cc(O)cc(O)c3C(=O)C2[C@@H]2C(=O)c3c(O)cc(O)cc3O[C@@H]2c2ccc(OC)cc2)cc1` (stereo partly drawn), the IC50 is > 10 µM (inactive). In the case of `CCCNC(=O)c1nnsc1S(=O)(=O)c1ccc(Cl)cc1`, the IC50 was 2.02 µM (inactive). As for `CCCCCCn1c(=O)c(C(=O)Nc2cnccn2)c(O)c2ccccc21`, the figure is 2.64 µM; as for `COc1ccc(NC(=O)c2cc(-c3cc(C)cc(C)c3O)n[nH]2)cc1Cl`, 8.79 µM (inactive); as for `O=C(CSC1c2ccccc2-c2ccccc21)N/N=C/c1ccccc1O`, > 10 µM (inactive). For the compound `COc1ccc(Cn2c(C)c(C)c(C#N)c2NC(=O)Nc2ccc(Cl)cc2)cc1`, the IC50 was 7.29 µM (inactive).

With `NS(=O)(=O)c1ccc(N/N=C2/CCCCC2C2CCCCC2)c([N+](=O)[O-])c1` (stereo not drawn), the IC50 is 5.37 µM (inactive).

As to `O=C(Nc1ccccc1)Nc1cc(OCC(F)(F)F)cc(OCC(F)(F)F)c1`, the IC50 was 2.34 µM. For the compound `Fc1cccc(-c2nnn3c2nc(Cl)c2ccccc23)c1`, the IC50 is 7.37 µM (inactive). On to `C=CCn1c(O)c(C(CC)=Nc2ccc(N(CC)CC)cc2)c(=O)[nH]c1=O`, for which the IC50 was 2.56 µM. For `O=C(Nc1cccc(Cl)c1Cl)c1cc(S(=O)(=O)NCCc2ccccc2)ccc1F`, the IC50 is 9.57 µM (inactive). The value for `Cc1ccccc1CS(=O)(=O)c1nnc([C@H](CC(C)C)NC(=O)OC(C)(C)C)o1` was 4.63 µM. For `CCOc1ccc(C2C=C(c3ccc(C)cc3)Nc3nnnn32)cc1` (stereo not drawn), the IC50 was 9.86 µM (inactive).

On to `Cc1cccc(NC(=O)CSc2nc(C)c(CC(=O)c3ccc(Br)cc3)c(C)c2C#N)c1C`, for which the IC50 was 5.95 µM (inactive). As for `O=[N+]([O-])c1ccc(COc2ccc(-c3[nH]ncc3-c3ccccc3)c(O)c2)cc1`, the figure is 9.61 µM (inactive); as for `O=C(N/N=C/c1ccc(F)cc1)c1c(O)c2ccccc2[nH]c1=O`, > 10 µM (inactive); as for `CC1=C(CO)C(=O)OC([C@@H](C)C2CC[C@H]3C4C[C@H]5O[C@]56[C@@H](O)C=CC(=O)[C@]6(C)C4CC[C@]23C)C1` (stereo partly drawn), > 10 µM (inactive). The value for `O=C1C(C2=NC(c3ccccn3)C3C(=O)N(c4ccc(Cl)cc4Cl)C(=O)C23)=C(O)c2ccccc21` (stereo not drawn) was 7.17 µM (inactive); that for `CCOC(=O)C1=C(c2ccccc2)O/C(=C(/C#N)C(F)(F)F)S1` was 6.28 µM (inactive); that for `Cc1cc2c(cc1C)CSC(c1c(O)ccc3ccccc13)SC2` was > 10 µM (inactive). The value for `COc1cc(/C=C(\C#N)c2nc3ccccc3[nH]2)cc(Br)c1OCc1ccc(F)cc1` was 6.3 µM (inactive).

As to `O=c1c(Cl)c(Cl)cnn1Cc1nnc(-c2ccccc2Br)o1`, the IC50 is 3.77 µM. As for `Cc1ccc(-c2nc(N)sc2-c2ccc(C)cc2)cc1`, the figure is 9.83 µM (inactive). As for `O=C(COc1ccc(Cl)cc1Cl)Nc1ccccn1`, the figure is 2.43 µM.

Take `Cc1ccc(NC(=O)c2ccc(C#CC3(O)CCCCC3)cc2)cc1C`: the IC50 was > 10 µM (inactive). On to `O=C(NC(Nc1nc2ccc([N+](=O)[O-])cc2s1)(C(F)(F)F)C(F)(F)F)c1ccccc1Cl`, for which the IC50 was 0.87 µM. The value for `COc1ccc(C2CC(c3c(-c4ccccc4)c4cc(Cl)ccc4[nH]c3=O)=NN2S(C)(=O)=O)cc1OC` (stereo not drawn) was 8.04 µM (inactive); that for `CC(C)CCN(C(=O)Cc1ccc(Cl)c(Cl)c1)c1c(N)n(Cc2ccccc2)c(=O)[nH]c1=O` was 5.74 µM (inactive). Regarding `CCc1ccc2[nH]c(=O)c(C(c3nnnn3Cc3ccco3)N3CCC(C)CC3)cc2c1` (stereo not drawn), the IC50 is 4.96 µM. As for `Cc1cc(C)cc(NC(=O)/C(C#N)=C/c2cn(CC(=O)NCc3ccco3)c3ccccc23)c1`, the figure is 1.17 µM; as for `CCSc1nc2ccccc2n1C(=O)/C=C/c1ccc(OC)c(OC)c1`, 4.97 µM. As for `O=C(NC(c1ccccc1)c1cc(Cl)c2cccnc2c1O)c1cccnc1` (stereo not drawn), the figure is 3.36 µM.
